Target: TNFα (Homo sapiens, UniProt P01375)
Assay: TNF induced HEK-Blue assay (NF-kB-driven secreted alkaline phosphatase reporter)
Format: cell-based
Settings: TNFα 0.5 ng/mL, HEK-Blue-CD40L cells, 18 h; read-out: TNF induced HEK-Blue assay IC50 value
Experimental: TNF or CD40L-Induced HEK-Blue Assay
Test compounds serially diluted in DMSO were plated in an assay plate (LABCYTE, Cat. # LP-0200) at final concentrations ranging from 0.004 μM to 25 μM. TNFα (final concentration 0.5 ng/mL) or CD40L (final concentration 30 ng/mL) in assay buffer [DMEM, 4.5 g/l glucose (Gibco, Cat. 21063-029), 10% FBS (Sigma, F4135), 1% Penicillin-Streptomycin (Gibco, Cat. 15140-122), 1% Anti-Anti (Gibco, Cat. 15240-112) and 2 mM L-glutamine (Gibco, Cat. 25030-081)] was then added to the assay plate. After a 30 minute pre-incubation at 37° C. and 5% CO2, HEK-Blue™-CD40L cells (INVIVOGEN, Cat. Code hkb-cd40) containing a NF-kB-driven secreted alkaline phosphatase reporter gene were seeded into the assay plate at a density of 20,000 cells per well. This plate was then incubated for 18 h at 37° C. and 5% CO2. Secreted alkaline phosphatase expression was measured using QUANTI-Blue™ (INVIVOGEN, Cat. Code rep-qb1) according to manufacturer's specifications and the assay plate was read on a PerkinElmer Envision at 620 nm.
Inhibition data for the test compound over a range of concentrations was plotted as percentage inhibition of the test compound (100%=maximum inhibition). IC50 values were determined after correcting for background [(sample read-mean of low control)/(mean of high control-mean of low control)] where by the low control is DMSO without stimulation and high control is DMSO with stimulation. The IC50 is defined as the concentration of test compound which produces 50% inhibition and was quantified using the 4 parameter logistic equation to fit the data.

Sequence of TNFα (P01375 77-233 limits assumed): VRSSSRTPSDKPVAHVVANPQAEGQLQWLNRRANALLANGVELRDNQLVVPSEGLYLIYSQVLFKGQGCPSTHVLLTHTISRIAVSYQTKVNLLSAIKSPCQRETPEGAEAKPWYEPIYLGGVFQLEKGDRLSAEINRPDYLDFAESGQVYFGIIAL

Structure (SMILES)	IC50 [µM]
CCC(Nc1c(Cl)cnc2ccc(-c3ccc(C(C)(C)O)cc3)cc12)c1nc(C(N)=O)ccc1F (racemic) [Example 24, 6-(1-((3-chloro-6-(4-(2-hydroxypropan-2-yl)phenyl)quinolin-4-yl)amino)propyl)-5-fluoropicolinamide]	< 1
CC(Nc1c(Cl)cnc2ccc(-c3ccc(C(C)(C)O)cc3)cc12)c1nc(C(N)=O)ccc1F (racemic) [Example 27, 6-(1-((3-chloro-6-(4-(2-hydroxypropan-2-yl)phenyl)quinolin-4-yl)amino)ethyl)-5-fluoropicolinamide]	< 1
CC(Nc1c(Cl)cnc2ccc(-c3cnc(C(C)(C)O)nc3)cc12)c1nc(C(N)=O)ccc1F (racemic) [Example 28, 6-(1-((3-chloro-6-(2-(2-hydroxypropan-2-yl)pyrimidin-5-yl)quinolin-4-yl)amino)ethyl)-5-fluoropicolinamide]	< 1
CC(Nc1c(Cl)cnc2ccc(-c3cnc(N4CCNC(=O)C4)nc3)cc12)c1nc(C(=O)Nc2ccccc2)ccc1F (racemic) [Example 38, 6-(1-((3-chloro-6-(2-(3-oxopiperazin-1-yl)pyrimidin-5-yl)quinolin-4-yl)amino)ethyl)-5-fluoro-N-phenylpicolinamide]	1 to 10
CCNC(=O)c1ccc(F)c(C(C)Nc2c(Cl)cnc3ccc(-c4cnc(N5CCNC(=O)C5)nc4)cc23)n1 (racemic) [Example 39, 6-(1-((3-chloro-6-(2-(3-oxopiperazin-1-yl)pyrimidin-5-yl)quinolin-4-yl)amino)ethyl)-N-ethyl-5-fluoropicolinamide]	< 1
CC1Cc2ccccc2N1Nc1c(Cl)cnc2ccc(-c3cnc(C(C)(C)O)nc3)cc12 (racemic) [Example 48, 2-(5-(3-chloro-4-((2-methylindolin-1-yl)amino)quinolin-6-yl)pyrimidin-2-yl)propan-2-ol]	< 1
CC(C)(O)c1ncc(-c2ccc3ncc(Cl)c(NC(c4ccccc4F)C(C)(C)O)c3c2)cn1 (racemic) [Example 49, 1-((3-chloro-6-(2-(2-hydroxypropan-2-yl)pyrimidin-5-yl)quinolin-4-yl)amino)-1-(2-fluorophenyl)-2-methylpropan-2-ol]	< 1
CCC(Nc1c(Cl)cnc2ccc(-c3cnc(C(C)(C)O)nc3)cc12)C1CCC1 (racemic) [Example 50, 2-(5-(3-chloro-4-((1-cyclobutylpropyl)amino)quinolin-6-yl)pyrimidin-2-yl)propan-2-ol]	< 1
CC(C)C(Nc1c(Cl)cnc2ccc(-c3cnc(C(C)(C)O)nc3)cc12)c1ccccn1 (racemic) [Example 51, 2-(5-(3-chloro-4-((2-methyl-1-(pyridin-2-yl)propyl)amino)quinolin-6-yl)pyrimidin-2-yl)propan-2-ol]	< 1
CCC(Nc1c(Cl)cnc2ccc(-c3cnc(C(C)(C)O)nc3)cc12)c1ccccn1 (racemic) [Example 52, 2-(5-(3-chloro-4-((1-(pyridin-2-yl)propyl)amino)quinolin-6-yl)pyrimidin-2-yl)propan-2-ol]	< 1
CC(C)(O)c1ncc(-c2ccc3ncc(Cl)c(NC(c4ccccc4)C(F)F)c3c2)cn1 (racemic) [Example 57, 2-(5-(3-chloro-4-((2,2-difluoro-1-phenylethyl)amino)quinolin-6-yl)pyrimidin-2-yl)propan-2-ol]	< 1
CC(Nc1c(Cl)cnc2ccc(-c3cnc(C(C)(C)O)nc3)cc12)c1cc(Cl)ccn1 (racemic) [Example 62, 2-(5-(3-chloro-4-((1-(4-chloropyridin-2-yl)ethyl)amino)quinolin-6-yl)pyrimidin-2-yl)propan-2-ol]	1 to 10
CCC(Nc1c(Cl)cnc2ccc(-c3cnc(C(C)(C)O)nc3)cc12)c1nc(Br)ccc1F (racemic) [Example 64, 2-(5-(4-((1-(6-bromo-3-fluoropyridin-2-yl)propyl)amino)-3-chloroquinolin-6-yl)pyrimidin-2-yl)propan-2-ol]	< 1
Cc1ccc(C)c(Nc2c(Cl)c(N)nc3ccc(-c4cnc(NCC(O)CO)nc4)cc23)c1 (racemic) [Example 73, 3-((5-(2-amino-3-chloro-4-((2,5-dimethylphenyl)amino)quinolin-6-yl)pyrimidin-2-yl)amino)propane-1,2-diol]	1 to 10
CC(Nc1c(Cl)cnc2ccc(-c3cnc(C(C)(C)O)nc3)cc12)[C@@H]1CCCNC1 (mixture of isomers) [Example 98, (R)-2-(5-(3-chloro-4-((1-(piperidin-3-yl)ethyl)amino)quinolin-6-yl)pyrimidin-2-yl)propan-2-ol]	10 to 25
CC(Nc1c(Cl)cnc2c(Cl)cc(Br)cc12)c1ccccc1F (racemic) [Example 122, 6-bromo-3,8-dichloro-N-(1-(2-fluorophenyl)ethyl)quinolin-4-amine]	10 to 25
C=Cc1ccc(F)c(C(CC)Nc2c(Cl)cnc3ccc(-c4cnc(C(C)(C)O)nc4)cc23)n1 (racemic) [Example 126, 2-(5-(3-chloro-4-((1-(3-fluoro-6-vinylpyridin-2-yl)propyl)amino)quinolin-6-yl)pyrimidin-2-yl)propan-2-ol]	< 1
CC(Cc1ccco1)Nc1c(Cl)cnc2ccc(-c3cnc(C(C)(C)O)nc3)cc12 (racemic) [Example 133, 2-(5-(3-chloro-4-((1-(furan-2-yl)propan-2-yl)amino)quinolin-6-yl)pyrimidin-2-yl)propan-2-ol]	< 1
CC1=C(CC(C)Nc2c(Cl)cnc3ccc(-c4cnc(C(C)(C)O)nc4)cc23)CCC1(C)C (racemic) [Example 134, 2-(5-(3-chloro-4-((1-(2,3,3-trimethylcyclopent-1-en-1-yl)propan-2-yl)amino)quinolin-6-yl)pyrimidin-2-yl) propan-2-ol]	1 to 10
CC(C)CC(C)Nc1c(Cl)cnc2ccc(-c3cnc(C(C)(C)O)nc3)cc12 (racemic) [Example 135, 2-(5-(3-chloro-4-((4-methylpentan-2-yl)amino)quinolin-6-yl)pyrimidin-2-yl)propan-2-ol]	< 1
CC(Cc1ccc(OC(F)(F)F)cc1)Nc1c(Cl)cnc2ccc(-c3cnc(C(C)(C)O)nc3)cc12 (racemic) [Example 137, 2-(5-(3-chloro-4-((1-(4-(trifluoromethoxy)phenyl)propan-2-yl)amino)quinolin-6-yl)pyrimidin-2-yl)propan-2-ol]	1 to 10
CC(Cc1cn(C)c(=O)c2ccccc12)Nc1c(Cl)cnc2ccc(-c3cnc(C(C)(C)O)nc3)cc12 (racemic) [Example 138, 4-(2-((3-chloro-6-(2-(2-hydroxypropan-2-yl)pyrimidin-5-yl)quinolin-4-yl)amino)propyl)-2-methylisoquinolin-1(2H)-one]	10 to 25
CCCCCC(C)Nc1c(Cl)cnc2ccc(-c3cnc(C(C)(C)O)nc3)cc12 (racemic) [Example 139, 2-(5-(3-chloro-4-(heptan-2-ylamino)quinolin-6-yl)pyrimidin-2-yl) propan-2-ol]	< 1
CC(CC1CCCC1)Nc1c(Cl)cnc2ccc(-c3cnc(C(C)(C)O)nc3)cc12 (racemic) [Example 140, 2-(5-(3-chloro-4-((1-cyclopentylpropan-2-yl)amino)quinolin-6-yl)pyrimidin-2-yl)propan-2-ol]	< 1
Cc1ccc2c(CCC(C)Nc3c(Cl)cnc4ccc(-c5cnc(C(C)(C)O)nc5)cc34)c[nH]c2c1 (racemic) [Example 141, 2-(5-(3-chloro-4-((4-(6-methyl-1H-indol-3-yl)butan-2-yl)amino)quinolin-6-yl)pyrimidin-2-yl)propan-2-ol]	10 to 25

Source: patent US10865191B2, “Heterocyclic compounds useful as modulators of TNF alpha” (BRISTOL-MYERS SQUIBB COMPANY, priority 2015, dated 2020)
